Calls of active or inactive are those of the source.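 The calls were made as follows: active = a tumor-causing dose value with its tumor site reported for any sex and species group of a rodent or other animal cancer study; inconclusive = only studies judged inadequate by the national testing program; inactive = tested in at least one study, none positive.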

A short description of this data set: DSSTox (CPDBAS) Carcinogenic Potency Database Summary SingleCellCall Results. To be noted: animal chronic carcinogenicity bioassays, CPDB summary call. A digest of the protocol: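 Literature-derived summary: each substance receives an overall carcinogenic/non-carcinogenic category drawn from long-term bioassays in rats, mice, hamsters, dogs or primates, using the most positive sex-species experiment and minimal evidence criteria.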
On to `C=CC1=C(C)C2=CC3=NC(=C(CC(=O)[O-])C4=NC(=C(C)C4=C([O-])[O-])C=c4[n-]c(c(C)c4CC)=CC1=N2)[C@@H](CCC(=O)[O-])[C@@H]3C.[Cu+2].[Na+].[Na+].[Na+]`, for which the result was inactive.

`CCOC(=O)/C=C\C(=O)OCC`: the outcome was “inactive; active”.

With `COc1cc(/C=N/NC(=O)c2ccncc2)ccc1O`, the outcome was “active; inactive”.

Take `CNNCc1ccc(C(=O)NC(C)C)cc1`: the outcome was active.

With `CCOc1ccccc1C(N)=O`, the outcome was active.

For `CN(C)C(=S)S`, the result was inactive.

On to `ClCC(Cl)Cl`, for which the result was active.

As to `[Se]`, the result was inactive.

Consider `CC1(C)O[C@@H]2C[C@H]3[C@@H]4CCC5=CC(=O)C=C[C@]5(C)[C@@]4(F)[C@@H](O)C[C@]3(C)[C@]2(C(=O)CO)O1`, for which the result was active.

For the compound `O=c1[nH]nc(-c2ccc([N+](=O)[O-])o2)o1`, the outcome is “active; inactive”.

Regarding `CC(=O)NNc1ccc(CO)cc1`, the outcome was active.

For the compound `C/C=C\c1ccc(OC)cc1`, the outcome was inactive.

With `CCCN(N)C=O`, the result was active.

With `S=C=NCc1ccccc1`, the result was inactive.

Take `NC(CCC(=O)O)C(=O)O` (stereo not drawn): the outcome was “inactive; active”.

Consider `O=C(O)c1cc(O)c(O)c(O)c1`, for which the outcome was inactive.

For `O=C1OC(c2ccc(O)cc2)(c2ccc(O)cc2)c2ccccc21`, the result was active.

Consider `Cc1csc(NNC=O)n1`, for which the result was active.

With `[N-]=[N+]=CC(=O)OC[C@H](N)C(=O)O`, the outcome was active.

On to `Cc1cccc(Nc2cc(Cl)nc(SCC(=O)NCCO)n2)c1C`, for which the outcome was “active; inactive”.

`COC(=O)C(c1ccccc1)C1CCCCN1N=O` (stereo not drawn): the result was inactive.

For `CCOc1ccc(NC(=O)CC(C)O)cc1` (stereo not drawn), the outcome was active.

As to `CCCCCCC(=O)/C=C/CCCCCCCCC(=O)OC`, the outcome was “inactive; active”.

Consider `C=CCN=C=S`, for which the outcome was “active; inactive”.

In the case of `OCN(CO)c1nc(N(CO)CO)nc(N(CO)CO)n1`, the outcome was active.

`CCC(=O)C(CC(C)N(C)C)(c1ccccc1)c1ccccc1` (stereo not drawn): the result was inactive.

In the case of `Cc1cc(N=Nc2ccccc2C)ccc1N`, the outcome was active.

Turning to `CCCC[C@H](C)[C@@H](OC(=O)C[C@H](CC(=O)O)C(=O)O)[C@@H](C[C@H](C)C[C@@H](O)CCCC[C@@H](O)C[C@H](O)[C@H](C)N)OC(=O)C[C@H](CC(=O)O)C(=O)O`, the outcome is “active; inactive”.

Turning to `CC(C)(C)O`, the outcome is “active; inactive”.

In the case of `CN(C)c1ccc(Cc2ccc(N(C)C)cc2)cc1`, the outcome was active.

As to `O=[N+]([O-])c1cc([N+](=O)[O-])c(Cl)c(Cl)c1Cl`, the outcome was inactive.

Regarding `CC(C)NCC(O)COc1cccc2ccccc12` (stereo not drawn), the result was inactive.

`Cc1cc(Cl)ccc1N`: the result was active.

With `COc1ccc2c(c1)c(CC(=O)O)c(C)n2C(=O)c1ccc(Cl)cc1`, the outcome is “active; inactive”.

Regarding `FC(F)OC(Cl)C(F)(F)F` (stereo not drawn), the outcome was inactive.

With `Cc1ccc(NC(N)=O)cc1`, the outcome was active.

Consider `NC(=O)N(CC(=O)O)N=O`, for which the outcome was “active; inactive”.

For `CC(C)NCC(O)c1ccc(NS(C)(=O)=O)cc1` (stereo not drawn), the result was inactive.

In the case of `CCCCCCCN`, the outcome was inactive.

`O=C(O)Cc1c[nH]c2ccccc12`: the result was inactive.

As to `S=c1[nH]c2ccccc2s1`, the result was active.

In the case of `C=CCN(N)CC=C`, the outcome was active.

As to `C=O`, the result was active.

Take `Cc1cc(C)c(S(=O)(=O)O)cc1N=Nc1cc(S(=O)(=O)O)c2ccccc2c1O`: the outcome was active.

On to `CC(=O)NNC(C)=O`, for which the outcome was inactive.

Take `NC(N)=NC(N)=NCCc1ccccc1`: the outcome was inactive.

Regarding `CN(C)CCN(Cc1ccco1)c1ccccn1`, the outcome was “inactive; active”.

As for `OC(O)C(Cl)(Cl)Cl`, the outcome is “active; inactive”.

Regarding `O=C(C1CCCCC1)N1CC(=O)N2CCc3ccccc3C2C1` (stereo not drawn), the result was inactive.

With `Nc1nc(N)nc(N)n1`, the outcome was active.

With `C=CC(OCC)OCC`, the outcome was inactive.

Turning to `CCC1C(=O)OCC1Cc1cncn1C` (stereo not drawn), the outcome was inactive.

Take `CO[C@@]12[C@H](COC(N)=O)C3=C(C(=O)C(C)=C(N)C3=O)N1C[C@@H]1N[C@@H]12`: the result was active.

Take `C=CF`: the outcome was “active; inactive”.

In the case of `C=CC(OC(C)=O)c1ccc2c(c1)OCO2` (stereo not drawn), the result was active.

`CC(Oc1cc(Cl)ccc1Cl)C(=O)O` (stereo not drawn): the result was inactive.

Turning to `CCc1cccc2c3c([nH]c12)C(CC)(CC(=O)O)OCC3` (stereo not drawn), the result was inactive.

With `Cc1cccc(Nc2cc(Cl)nc(SCC(=O)O)n2)c1C`, the outcome was “active; inactive”.

For `C[N+](C)(C)CCO`, the result was inactive.

Turning to `O=Cc1ccco1`, the outcome was “active; inactive”.

In the case of `Clc1ccc(Sc2cc(Cl)c(Cl)cc2Cl)cc1`, the outcome was inactive.

Turning to `C#C[C@]1(O)CC[C@H]2[C@@H]3CCc4cc(OC)ccc4[C@H]3CC[C@@]21C`, the result was inactive.

With `c1ccc2c(c1)cc1ccc3cccc4ccc2c1c34`, the outcome is “active; inactive”.

`Cc1ccc(/C(=C\CN2CCCC2)c2ccccn2)cc1`: the result was inactive.

Turning to `CC(C)(C)NCC(O)c1cc(O)cc(O)c1` (stereo not drawn), the outcome was active.

As for `CNC[C@H](O)c1cccc(O)c1`, the outcome was inactive.

For `CCN(CC)C(=O)/C(Cl)=C(\C)OP(=O)(OC)OC`, the outcome was inactive.

Take `C/C=C/C=C/C=O`: the outcome was active.

With `FC(F)(F)CCl`, the outcome is “active; inactive”.

On to `C/C=C1/C[C@@H](C)[C@@](C)(O)C(=O)OC/C2=C/CN(C)CC[C@@H](OC1=O)C2=O`, for which the result was active.

As for `Brc1cc(Br)c2cccnc2c1`, the outcome is “inactive; active”.

For the compound `O=C(O[C@@H]1Cc2c(O)cc(O)cc2O[C@@H]1c1cc(O)c(O)c(O)c1)c1cc(O)c(O)c(O)c1`, the outcome was inactive.

As to `S=C=NCCCc1ccccc1`, the result was inactive.

`Cc1ccc2cc3c(ccc4ccccc43)c3c2c1CC3`: the outcome was “active; inactive”.

Regarding `CC1=CC(=C(c2ccc(N)cc2)c2ccc(N)cc2)C=CC1=N`, the result was inactive.

For `C/C=C/Cl`, the outcome was active.

In the case of `CCCCCNN`, the result was active.

For `Cc1cc(C)nc(NS(=O)(=O)c2ccc(N)cc2)n1`, the result was active.

With `ClC/C=C/CCl`, the outcome is “active; inactive”.

For `Nc1cccc2c(N)cccc12`, the result was active.

With `Clc1ccc(-c2ccc(Cl)c(Cl)c2Cl)c(Cl)c1Cl`, the result was active.

For the compound `Nc1ncn[nH]1`, the outcome was “active; inactive”.

As to `O=S1OCC2C(CO1)C1(Cl)C(Cl)=C(Cl)C2(Cl)C1(Cl)Cl` (stereo not drawn), the outcome is “inactive; active”.

`CC(C)(c1ccc(O)cc1)c1ccc(O)cc1`: the outcome was “inactive; active”.

Turning to `Cc1ccc2c(-c3cccc(O)c3)nc(=O)n(C(C)C)c2c1`, the result was inactive.

Turning to `[N-]=[N+]=[N-]`, the outcome is “inactive; active”.

Regarding `NC(Cc1ccc(O)c(O)c1)C(=O)O` (stereo not drawn), the outcome was inactive.

With `CC(C)N=[N+]([O-])C(C)C`, the result was active.

Consider `CC/C(=C(/CC)c1ccc(O)cc1)c1ccc(O)cc1`, for which the result was active.

As to `O=Nc1ccc(NO)cc1`, the result was active.

In the case of `CCC1CO1` (stereo not drawn), the outcome is “active; inactive”.

As for `N[C@@H](CCC(=O)NNc1ccc(C(=O)O)cc1)C(=O)O`, the outcome is “active; inactive”.

For `OCC(O)CCl` (stereo not drawn), the result was inactive.

In the case of `C=CCl`, the outcome was “active; inactive”.

For `COP(=S)(OC)Oc1ccc(SC)c(C)c1`, the outcome was inactive.

`C=CC(O)c1ccc(OC)cc1` (stereo not drawn): the result was active.

`C1CO1`: the outcome was active.

On to `Cn1cc(OCC(O)CNC(C)(C)C)c2ccccc2c1=O` (stereo not drawn), for which the outcome is “inactive; active”.

As to `CC(O)CN(N=O)C(=O)NCCCl` (stereo not drawn), the outcome was active.

In the case of `Nc1ccc2nc3ccccn3c2n1`, the outcome is “active; inactive”.

As to `CNCc1ccc(CSCCNC(=NCC(O)c2ccc(O)cc2)NS(C)(=O)=O)o1` (stereo not drawn), the outcome was “active; inactive”.

`CCC(Cl)CCC(Cl)C(Cl)CC(Cl)C(Cl)C(Cl)CCl` (stereo not drawn): the outcome was active.

For the compound `CC1=C[C@H]2O[C@@H]3[C@H](O)C[C@@](C)(C34CO4)[C@@]2(CO)[C@H](O)C1=O` (stereo partly drawn), the outcome is “inactive; active”.

For the compound `CN(C)C(=S)[S][Bi]([S]C(=S)N(C)C)[S]C(=S)N(C)C`, the outcome was inactive.

For the compound `O=C/C=C/c1ccccc1`, the outcome was inactive.

In the case of `CCC1(c2ccccc2)C(=O)NCNC1=O`, the result was active.

As for `C[C@H](CCc1ccccc1)NC[C@H](O)c1ccc(O)c(C(N)=O)c1`, the outcome was inactive.

In the case of `C1C2OC2C2C1C1CC2C2OC12` (stereo not drawn), the result was inactive.

On to `CCCCOC(=O)c1ccccc1C(=O)OCc1ccccc1`, for which the result was active.

On to `NC(=O)c1cccnc1`, for which the result was inactive.

With `CC(COc1ccc(C(C)(C)C)cc1)OS(=O)OCCCl` (stereo not drawn), the outcome was active.

Consider `O=C(O)C1[O][Sb]2[O]C(=O)C([O]2)C(C(=O)O)[O][Sb]2[O]C(=O)C1[O]2` (stereo not drawn), for which the result was inactive.

As to `Cn1cnc2nc(N)[nH]c(=O)c21`, the result was inactive.

Values taken from PubChem BioAssay AID1189 (EPA DSSTox, 2008).
